ChEMBL document CHEMBL1123114, “Structure-activity relationships of arylimidazopyridine cardiotonics: discovery and inotropic activity of 2-[2-methoxy-4-(methylsulfinyl)phenyl]-1H-imidazo[4,5-c]pyridine” (1985)

Experiments:
[1] = species: Felis catus; test: Compound tested for contractility in isolated cat papillary muscle at 10 e-4 M.; format: functional
[2] = species: Felis catus; test: Compound tested for contractility in isolated cat papillary muscle at 10 e-5 M.; format: functional
[3] = species: Felis catus; test: Response ratio = (percent increase to drug)/(percent increase to 10 E-4 M isoproterenol); format: functional
[4] = species: Felis catus; test: Response ratio = (percent increase to drug)/(percent increase to 10 E-5 M isoproterenol); format: functional
[5] = species: Felis catus; test: Response ratio = (percent increase to drug)/(percent increase to 10 E-6 M isoproterenol); format: functional
[6] = species: Felis catus; test: Compound tested for contractility in isolated cat papillary muscle at 10 e-6 M.; format: functional
[7] = system: Canis familiaris; test: Compound tested for contractility in anesthetized dog when administered intravenously.; format: functional; settings: Canis lupus familiaris, iv
[8] = system: Canis familiaris; test: Percent change in heart rate in anesthetized dog; format: functional, Canis lupus familiaris
[9] = system: Canis familiaris; test: Percent change in mean arterial blood pressure in anesthetized dog; format: functional, Canis lupus familiaris
[10] = system: Canis familiaris; test: maximum percent increase in contractility in anesthetized dog when administered 4 mg/Kg intravenously; format: functional, Canis lupus familiaris
[11] = system: Canis familiaris; test: Compound tested for contractility in anesthetized dog when administered intravenously; ED50 not obtained; format: functional, organism-based; settings: Canis lupus familiaris
[12] = system: Canis familiaris; test: Percent change in heart rate in anesthetized dog; ED50 not obtained; format: functional, organism-based; settings: Canis lupus familiaris
[13] = system: Canis familiaris; test: Percent change in mean arterial blood pressure in anesthetized dog; ED50 not obtained; format: functional, organism-based; settings: Canis lupus familiaris

| Structure (SMILES) | Control [1] | Control [2] | Response ratio [3] | Response ratio [4] | Response ratio [5] | Control [6] | ED50 [7] | Change [8] | Change [9] | Increase [10] | ED50 [11] | ED50 [12] | ED50 [13] |
| --- | --- | --- | --- | --- | --- | --- | --- | --- | --- | --- | --- | --- | --- |
| CCOc1cc([S+](C)[O-])ccc1-c1nc2cc[nH]cc-2n1 (stereo unspecified) | 262% | 183% | 2.25 | 1.15 | 0.18 | 113% | 0.1 mg/kg | 14% | -4% |  |  |  |  |
| COc1cc(Oc2ccccc2)ccc1-c1nc2cc[nH]cc-2n1 | 155% | 122% | 0.76 | 0.3 |  |  |  |  |  | <50% |  |  |  |
| CN(C)c1ccc(-c2nc3cc[nH]cc-3n2)cc1 | 175% | 94% | 1.04 | -0.08 |  |  |  |  |  | <50% |  |  |  |
| COc1cc(Cl)ccc1-c1nc2cc[nH]cc-2n1 | 165% | 162% | 0.9 | 0.86 | 0.32 | 123% | 0.23 mg/kg | 14% | -21% |  |  |  |  |
| CCCCOc1ccc(-c2nc3cc[nH]cc-3n2)cc1 | 288% | 114% | 2.61 | 0.19 | 0.19 |  |  |  |  |  |  |  |  |
| COc1ccc(-c2nc3cccnc3[nH]2)cc1 | 173% | 104% | 1.01 | 0.06 |  |  |  |  |  |  | ED50 not obtained | ED50 not obtained | ED50 not obtained |
| COc1cc([N+](=O)[O-])ccc1-c1nc2cc[nH]cc-2n1 | 144% | 142% | 0.61 | 0.58 | 0.38 | 127% | 0.015 mg/kg | 5% | -23% |  |  |  |  |
| COc1cc(SC)ccc1-c1nc2cc[nH]cc-2n1 | 142% | 143% | 0.59 | 0.6 |  |  | 0.2 mg/kg | 9% | -17% |  |  |  |  |
